Legend:
Test in all cases: kinobeads assay with mass spectrometry detection of kinases (kinase selectivity profile)
Assay type in all cases: binding
kinases (kinome) [1] = biological target: T1, kinases (kinome) (Homo sapiens, UniProt O15197); details: EphB6 (TK), IPI00005222
T1 construct: determined in kinobeads assays with mass spectrometry detection of kinases as described previously; endogenous in cells; host or cells: cell lysate
T1 sequence (O15197 32-1021): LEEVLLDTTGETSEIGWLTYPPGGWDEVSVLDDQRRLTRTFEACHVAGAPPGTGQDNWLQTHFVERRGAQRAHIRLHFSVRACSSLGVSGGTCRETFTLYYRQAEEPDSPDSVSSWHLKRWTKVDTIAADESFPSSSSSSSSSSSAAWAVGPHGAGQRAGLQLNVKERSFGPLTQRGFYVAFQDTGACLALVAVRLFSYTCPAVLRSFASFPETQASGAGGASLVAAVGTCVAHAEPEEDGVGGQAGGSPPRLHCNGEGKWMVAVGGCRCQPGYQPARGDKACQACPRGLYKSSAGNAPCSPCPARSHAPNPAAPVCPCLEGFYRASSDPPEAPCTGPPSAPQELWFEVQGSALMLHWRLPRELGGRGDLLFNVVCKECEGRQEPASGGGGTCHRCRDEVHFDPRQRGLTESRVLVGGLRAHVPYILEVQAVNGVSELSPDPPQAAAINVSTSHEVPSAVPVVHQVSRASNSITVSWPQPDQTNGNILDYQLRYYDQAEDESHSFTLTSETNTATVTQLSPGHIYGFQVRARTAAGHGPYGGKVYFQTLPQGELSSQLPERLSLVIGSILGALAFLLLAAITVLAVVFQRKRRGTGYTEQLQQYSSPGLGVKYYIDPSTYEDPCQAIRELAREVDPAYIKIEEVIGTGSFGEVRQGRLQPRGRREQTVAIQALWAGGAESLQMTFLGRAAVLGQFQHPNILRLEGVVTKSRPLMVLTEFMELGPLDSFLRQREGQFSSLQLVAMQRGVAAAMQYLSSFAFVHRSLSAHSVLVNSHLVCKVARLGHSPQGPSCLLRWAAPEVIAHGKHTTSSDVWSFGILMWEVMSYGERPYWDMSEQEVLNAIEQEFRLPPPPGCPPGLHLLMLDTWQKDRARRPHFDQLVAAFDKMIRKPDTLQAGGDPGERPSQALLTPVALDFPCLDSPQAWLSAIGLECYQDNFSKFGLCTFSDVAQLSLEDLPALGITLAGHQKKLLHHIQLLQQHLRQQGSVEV
Source text: (§1) The protein kinase complement of the human genome (the kinome) was described previously (Manning et al., 2002. Science 298(5600):1912-1934). Sequence accession numbers are defined by the International Protein Index (IPI) (Kersey et al., 2004. Proteomics 4(7):1985-1988).

kinases (kinome) [2] = biological target: T2, kinases (kinome) (Homo sapiens, UniProt Q16566); details: CaMK4 (CAMK), IPI00430411
T2 construct: determined in kinobeads assays with mass spectrometry detection of kinases as described previously; endogenous in cells; host or cells: cell lysate
T2 sequence (Q16566 1-473): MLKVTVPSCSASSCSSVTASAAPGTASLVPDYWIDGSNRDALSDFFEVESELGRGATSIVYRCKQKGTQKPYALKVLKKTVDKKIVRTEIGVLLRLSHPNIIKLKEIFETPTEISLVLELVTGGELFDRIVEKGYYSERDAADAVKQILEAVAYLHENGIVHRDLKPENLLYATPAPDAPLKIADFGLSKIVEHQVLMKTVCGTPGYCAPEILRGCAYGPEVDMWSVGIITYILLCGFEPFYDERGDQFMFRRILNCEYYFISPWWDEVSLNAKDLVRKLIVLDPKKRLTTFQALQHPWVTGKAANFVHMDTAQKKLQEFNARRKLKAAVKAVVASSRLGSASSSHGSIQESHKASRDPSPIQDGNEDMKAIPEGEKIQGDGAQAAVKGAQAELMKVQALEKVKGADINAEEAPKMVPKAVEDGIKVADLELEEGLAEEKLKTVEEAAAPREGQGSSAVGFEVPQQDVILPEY
Source text: as §1

kinases (kinome) [3] = biological target: T3, kinases (kinome) (Homo sapiens, UniProt Q02750); details: MAP2K1 (STE), IPI00219604
T3 construct: determined in kinobeads assays with mass spectrometry detection of kinases as described previously; endogenous in cells; host or cells: cell lysate
Source text: as §1

kinases (kinome) [4] = biological target: T4, kinases (kinome) (Homo sapiens, UniProt Q05655); details: PKCd (AGC), IPI00329236
T4 construct: determined in kinobeads assays with mass spectrometry detection of kinases as described previously; endogenous in cells; host or cells: cell lysate
Source text: as §1

kinases (kinome) [5] = biological target: T5, kinases (kinome) (Homo sapiens, UniProt P52333); details: JAK3 (TK), IPI00219418
T5 construct: determined in kinobeads assays with mass spectrometry detection of kinases as described previously; endogenous in cells; host or cells: cell lysate
T5 sequence (P52333 1-1124): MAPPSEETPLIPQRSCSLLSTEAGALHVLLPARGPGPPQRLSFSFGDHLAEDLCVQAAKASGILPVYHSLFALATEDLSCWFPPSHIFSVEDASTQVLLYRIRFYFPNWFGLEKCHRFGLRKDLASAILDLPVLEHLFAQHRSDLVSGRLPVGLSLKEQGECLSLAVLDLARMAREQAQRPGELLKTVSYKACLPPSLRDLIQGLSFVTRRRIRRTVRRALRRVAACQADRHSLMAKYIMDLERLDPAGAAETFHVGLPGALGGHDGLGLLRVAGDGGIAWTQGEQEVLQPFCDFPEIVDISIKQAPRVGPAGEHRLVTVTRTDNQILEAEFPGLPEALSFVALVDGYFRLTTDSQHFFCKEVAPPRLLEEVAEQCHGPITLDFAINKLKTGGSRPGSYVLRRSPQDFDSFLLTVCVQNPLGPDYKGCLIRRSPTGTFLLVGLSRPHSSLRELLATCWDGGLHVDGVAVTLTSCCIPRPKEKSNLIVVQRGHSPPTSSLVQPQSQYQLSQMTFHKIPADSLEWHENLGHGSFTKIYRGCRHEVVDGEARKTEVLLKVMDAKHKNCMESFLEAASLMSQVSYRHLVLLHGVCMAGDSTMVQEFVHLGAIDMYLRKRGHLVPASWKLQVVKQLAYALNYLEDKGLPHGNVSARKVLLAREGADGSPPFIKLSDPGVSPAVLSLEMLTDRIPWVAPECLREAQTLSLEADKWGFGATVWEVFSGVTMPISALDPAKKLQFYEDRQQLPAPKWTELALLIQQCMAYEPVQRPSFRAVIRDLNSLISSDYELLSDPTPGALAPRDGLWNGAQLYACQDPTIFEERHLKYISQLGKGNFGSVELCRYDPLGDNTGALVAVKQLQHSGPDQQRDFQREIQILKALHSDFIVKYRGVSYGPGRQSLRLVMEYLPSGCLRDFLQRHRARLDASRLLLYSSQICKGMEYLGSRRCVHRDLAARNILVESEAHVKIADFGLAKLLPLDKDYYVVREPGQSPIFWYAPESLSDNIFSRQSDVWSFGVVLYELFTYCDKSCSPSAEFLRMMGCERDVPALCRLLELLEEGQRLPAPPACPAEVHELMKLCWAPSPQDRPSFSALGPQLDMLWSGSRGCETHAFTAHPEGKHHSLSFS
Source text: as §1

kinases (kinome) [6] = biological target: T6, kinases (kinome) (Homo sapiens, UniProt O75676); details: MSK2 (AGC), IPI00022536
T6 construct: determined in kinobeads assays with mass spectrometry detection of kinases as described previously; endogenous in cells; host or cells: cell lysate
Source text: as §1

Measured: IC50

T3 sequence (Q02750 whole entry): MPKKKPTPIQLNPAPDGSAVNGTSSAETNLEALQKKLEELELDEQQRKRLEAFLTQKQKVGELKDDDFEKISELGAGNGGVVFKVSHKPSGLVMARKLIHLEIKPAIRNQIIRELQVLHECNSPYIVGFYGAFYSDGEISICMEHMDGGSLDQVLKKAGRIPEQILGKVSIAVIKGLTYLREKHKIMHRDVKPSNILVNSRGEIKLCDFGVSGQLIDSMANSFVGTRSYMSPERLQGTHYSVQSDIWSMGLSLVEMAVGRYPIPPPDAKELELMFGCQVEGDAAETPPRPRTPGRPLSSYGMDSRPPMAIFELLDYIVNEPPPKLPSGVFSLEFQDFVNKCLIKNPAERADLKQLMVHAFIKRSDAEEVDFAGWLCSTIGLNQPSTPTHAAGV
T6 sequence (O75676 whole entry): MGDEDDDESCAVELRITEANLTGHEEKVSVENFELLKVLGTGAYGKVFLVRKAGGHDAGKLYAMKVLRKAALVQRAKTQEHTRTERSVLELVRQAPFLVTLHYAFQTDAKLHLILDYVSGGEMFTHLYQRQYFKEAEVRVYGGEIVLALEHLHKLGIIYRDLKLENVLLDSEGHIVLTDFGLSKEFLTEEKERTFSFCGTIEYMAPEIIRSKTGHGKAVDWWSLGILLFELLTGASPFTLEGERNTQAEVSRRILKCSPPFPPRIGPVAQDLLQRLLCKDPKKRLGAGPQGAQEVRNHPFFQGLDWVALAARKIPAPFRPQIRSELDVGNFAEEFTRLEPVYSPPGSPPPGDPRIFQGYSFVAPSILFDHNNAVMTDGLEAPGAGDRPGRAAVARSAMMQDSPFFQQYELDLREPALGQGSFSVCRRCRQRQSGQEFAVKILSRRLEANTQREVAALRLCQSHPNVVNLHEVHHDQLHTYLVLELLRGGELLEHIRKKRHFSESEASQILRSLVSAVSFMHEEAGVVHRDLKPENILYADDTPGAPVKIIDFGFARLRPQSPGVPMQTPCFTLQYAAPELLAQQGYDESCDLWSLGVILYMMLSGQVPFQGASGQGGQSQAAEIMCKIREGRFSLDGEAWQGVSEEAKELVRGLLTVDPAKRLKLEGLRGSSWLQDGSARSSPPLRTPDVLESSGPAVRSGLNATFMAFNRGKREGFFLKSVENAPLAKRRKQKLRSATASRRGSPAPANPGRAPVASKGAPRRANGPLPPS
T4 sequence (Q05655 whole entry): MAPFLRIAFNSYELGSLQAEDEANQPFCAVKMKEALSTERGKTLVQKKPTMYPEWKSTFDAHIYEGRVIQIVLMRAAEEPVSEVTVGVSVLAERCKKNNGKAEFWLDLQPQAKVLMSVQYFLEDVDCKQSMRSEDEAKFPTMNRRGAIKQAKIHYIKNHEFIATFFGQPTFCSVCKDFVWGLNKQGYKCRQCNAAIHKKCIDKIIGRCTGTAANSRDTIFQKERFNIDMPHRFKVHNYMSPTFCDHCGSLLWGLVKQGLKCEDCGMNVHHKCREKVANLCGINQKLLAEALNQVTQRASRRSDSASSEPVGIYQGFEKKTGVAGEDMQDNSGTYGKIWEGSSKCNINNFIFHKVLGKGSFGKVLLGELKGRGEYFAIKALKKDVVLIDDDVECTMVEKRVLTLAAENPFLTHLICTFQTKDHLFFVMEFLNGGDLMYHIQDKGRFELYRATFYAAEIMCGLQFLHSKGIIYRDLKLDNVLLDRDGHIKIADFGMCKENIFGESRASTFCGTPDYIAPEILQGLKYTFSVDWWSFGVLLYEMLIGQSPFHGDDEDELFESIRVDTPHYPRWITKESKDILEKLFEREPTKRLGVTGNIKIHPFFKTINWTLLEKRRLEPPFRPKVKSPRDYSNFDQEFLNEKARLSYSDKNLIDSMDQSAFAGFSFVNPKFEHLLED

C[C@H]1COCCN1c1nc(-c2ccc(NC(=O)NC3CC3)cc2)cc(-c2ccccc2S(C)(=O)=O)n1 [Example 4, (S)-1-cyclopropyl-3-(4-(2-(3-methylmorpholino)-6-(2-(methylsulfonyl)phenyl)pyrimidin-4-yl)phenyl)urea]
> 10 µM: kinases (kinome) [1] | kinases (kinome) [2] | kinases (kinome) [3] | kinases (kinome) [4]

C[C@H]1COCCN1c1cc(-c2ccccc2S(C)(=O)=O)nc(-c2ccc(NC(=O)NC3CC3)cc2)n1 [Example 6, (S)-1-cyclopropyl-3-(4-(4-(3-methylmorpholino)-6-(2-(methylsulfonyl)phenyl)pyrimidin-2-yl)phenyl)urea]
> 10 µM: kinases (kinome) [1] | kinases (kinome) [2] | kinases (kinome) [5]

CCNC(=O)Nc1ccc(-c2cc(-c3ccccc3C#N)nc(N3CCOC[C@@H]3C)n2)cc1 [Example 8, (S)-1-(4-(6-(2-cyanophenyl)-2-(3-methylmorpholino)pyrimidin-4-yl)phenyl)-3-ethylurea]
> 10 µM: kinases (kinome) [2]

C[C@H]1COCCN1c1nc(-c2ccc(NC(=O)NC3CC3)cc2)cc(-c2cc(F)ccc2S(C)(=O)=O)n1 [Example 40, (S)-1-cyclopropyl-3-(4-(6-(5-fluoro-2-(methylsulfonyl)phenyl)-2-(3-methylmorpholino)pyrimidin-4-yl)phenyl)urea]
> 10 µM: all assays above

C[C@H]1COCCN1c1cc(-c2ccccn2)nc(-c2ccc(NC(=O)NCCO)cc2)n1 [Example 43, (S)-1-(2-hydroxyethyl)-3-(4-(4-(3-methylmorpholino)-6-(pyridin-2-yl)pyrimidin-2-yl)phenyl)urea]
not listed: kinases (kinome) [1]
> 10 µM: all other assays above

C[C@H]1COCCN1c1nc(-c2ccc(NC(=O)NC3CC3)cc2)cc(-c2cccnc2S(C)(=O)=O)n1 [Example 46, (S)-1-cyclopropyl-3-(4-(2-(3-methylmorpholino)-6-(2-(methylsulfonyl)pyridin-3-yl)pyrimidin-4-yl)phenyl)urea]
not listed: kinases (kinome) [2]
> 10 µM: all other assays above

C[C@H]1COCCN1c1nc(-c2ccc(NC(=O)N[C@H]3CCC[C@@H]3O)cc2)cc(-c2cc(F)ccc2S(C)(=O)=O)n1 [Example 76, 1-(4-(6-(5-fluoro-2-(methylsulfonyl)phenyl)-2-((S)-3-methylmorpholino)pyrimidin-4-yl)phenyl)-3-((1S,2S)-2-hydroxycyclopentyl)urea]
> 10 µM: kinases (kinome) [3] | kinases (kinome) [4] | kinases (kinome) [5]
